Square brackets hold non-standard residues; d marks the D form. Ends that are not written are not given here. pS = N[C@@H](COP(=O)(O)O)C(=O)O
Tested on: CD4+ T-cell response in PBMCs from 51 human donors
Assay: EpiScreen time course T-cell proliferation and IL-2 ELISPOT assays (Example 6)
Type: cell-based
Settings: 5 μM peptide, 51 donors; for donors responding, taking into account borderline responses and donors responding in only one of the two assays: SI≥1.90 borderline; for donors responding in both IL-2 ELISPOT and proliferation assays: SI≥2.00
Description: Two 16-mer peptides, Tau 393-408[pS396/pS404] (T3.5 having the amino acid sequence of SEQ ID NO:2) and Tau393-408 (T3.6 having the amino acid sequence of SEQ ID NO:4) were tested in EpiScreen™ time course T-cell assays for the capacity to induce CD4^+ T-cell response in 51 human donors.
EpiScreen™ Time Course T-cell Proliferation Assays and IL-2 ELISPOT Assays
PBMCs from 51 human donors were stimulated with either peptide at a final concentration of 5 μM. For each donor, a reproducibility control (cells incubated with 100 μg/mL KLH), a benchmark clinical control (cells incubated with 0.3 μM humanized A33) and a culture medium only well were also included. Proliferation and IL-2 production were evaluated after different time points.
For proliferation assays and IL-2 ELISPOT assays, an empirical threshold of a Stimulation Index (SI) equal to or greater than two (SI≥2.00) has been previously established whereby samples inducing responses above this threshold are deemed positive whereas SI≥1.90 were considered as borderline responders.
Previous EpiScreen™ time course T-cell assays with a range of biologics have shown a clear correlation between the percentage of donor T-cell responses in the EpiScreen™ assay and the level of immunogenicity observed in the clinic. In general, protein therapeutics that induce >10% positive responses in the EpiScreen™ assay are associated with a significant risk of immunogenicity in the clinic.

| Substance | donors responding, taking into account borderline responses and donors responding in only one of the two assays [%] | donors responding in both IL-2 ELISPOT and proliferation assays [%] |
| --- | --- | --- |
| VYKSPVVSGDTSPRHL (tau peptide) [Tau 393-408, 16-mer non-phosphorylated Tau peptide] | 8 | 4 |
| VYK[pS]PVVSGDT[pS]PRHL [Tau 393-408 [pS396/pS404]] | 8 | 2 |

From US12324855B2, “Method of safe administration of phosphorylated Tau peptide vaccine” (AC Immune SA, priority 2019, dated 2025)
